In US20230219906A1, “MACROCYCLIC-2-AMINO-3-FLUORO-BUT-3-ENAMIDES AS INHIBITORS OF MCL-1” (Janssen Pharmaceutica NV, priority 2020, published 2023):

Tests used:
[1] = biological target: Myeloid Cell Leukemia 1(Mcl-1) (Homo sapiens, UniProt Q07820); experiment: Terbium labeled Mcl-1 HTRF binding assay with Cy5-labeled BIM BH3 peptide; conditions: displacement of Cy5 Bim BH3 peptide; Ki=IC50/(1+[L]/Kd), [L]=8 nM, Kd=10 nM; 60 minutes at room temperature; read-out: Tb-MCL1 Ki
Procedure: Terbium labeled Myeloid Cell Leukemia 1(Mcl-1) homogeneous time-resolved fluorescence (HTRF) binding assay utilizing the BIM BH3 peptide (H2N—(C/Cy5Mal) WIAQELRRIGDEFN-OH) as the binding partner for Mcl-1.
This assay evaluated inhibition of the BH3 domain: Mcl-1 interaction by measuring the displacement of Cy5-labeled BIM BH3 peptide (H2N—(C/Cy5Mal) WIAQELRRIGDEFN-OH) in the HTRF assay format.
The following assay and stock buffers were prepared for use in the assay: (a) Stock buffer: 10 mM Tris-HCl, pH=7.5+150 mM NaCl, filtered, sterilized, and stored at 4° C.; and (b) 1X assay buffer, where the following ingredients were added fresh to stock buffer: 2 mM dithiothreitol (DTT), 0.0025% Tween-20, 0.1 mg/mL bovine serum albumin (BSA). The 1X Tb-Mcl-1+Cy5 Bim peptide solution was prepared by diluting the protein stock solution using the 1X assay buffer (b) to 25 pM Tb-Mcl-1 and 8 nM Cy5 Bim peptide.
Using the Acoustic ECHO, 100 nL of 100x test compound(s) were dispensed into individual wells of a white 384-well Perkin Elmer Proxiplate, for a final compound concentration of 1× and final DMSO concentration of 1%. Inhibitor control and neutral control (NC, 100 nL of 100% DMSO) were stamped into columns 23 and 24 of assay plate, respectively. Into each well of the plate was then dispensed 10 μL of the 1X Tb-Mcl-1+Cy5 Bim peptide solution. The plate was centrifuged with a cover plate at 1000 rpm for 1 minute, then incubated for 60 minutes at room temperature with plates covered.
The TR-FRET signal was read on an BMG PHERAStar FSX MicroPlate Reader at room temperature using the HTRF optic module (HTRF: excitation: 337 nm, light source: laser, emission A: 665 nm, emission B: 620 nm, integration start: 60 μs, integration time: […]).
The BMG PHERAStar FSX MicroPlate Reader was used to measure fluorescence intensity at two emission wavelengths—665 nm and 620 nm—and report relative fluorescence units (RFU) for both emissions, as well as a ratio of the emissions (665 nm/620 nm)*10,000. The RFU values were normalized to percent inhibition as follows:
% inhibition=(((NC−IC)−(compound−IC))/(NC−IC))*100
where IC (inhibitor control, low signal)= mean signal of 1X Tb-MCl-1+Cy5 Bim peptide+inhibitor control or 100% inhibition of Mcl-1; NC (neutral control, high signal)= mean signal 1X Tb-MCl-1+Cy5 Bim peptide with DMSO only or 0% inhibition An 11-point dose response curve was generated to determine IC50 values (using GenData) based on the following equation:
Y=Bottom+(Top−Bottom)/(1+10∧((log IC50−X)*HillSlope))
where Y=% inhibition in the presence of X inhibitor concentration; Top=100% inhibition derived from the IC (mean signal of Mcl-1+inhibitor control); Bottom=0% inhibition derived from the NC (mean signal of Mcl-1+DMSO); Hillslope=Hill coefficient; and IC50=concentration of compound with 50% inhibition in relation to top/neutral control (NC).
In this assay [L]=8 nM and Kd=10 nM

[2] = test system: MOLP-8 human multiple myeloma cell line; experiment: Caspase-Glo 3/7 apoptosis induction assay in MOLP-8 cells; format: cell-based; conditions: Homo sapiens, MOLP-8, 2 h, caspase-3/7 activity, 2 hours at 37° C.; averaged over all runs on all batches; read-out: MOLP8 AC50
Source text: MCL-1 is a regulator of apoptosis and is highly over-expressed in tumor cells that escape cell death. The assay evaluates the cellular potency of small-molecule compounds targeting regulators of the apoptosis pathway, primarily MCL-1, Bfl-1, Bcl-2, and other proteins of the Bcl-2 family. Protein-protein inhibitors disrupting the interaction of anti-apoptotic regulators with BH3-domain proteins initiate apoptosis.
The Caspase-Glo® 3/7 Assay is a luminescent assay that measures caspase-3 and −7 activities in purified enzyme preparations or cultures of adherent or suspension cells. The assay provides a proluminescent caspase-3/7 substrate, which contains the tetrapeptide sequence DEVD. This substrate is cleaved to release aminoluciferin, a substrate of luciferase used in the production of light. Addition of the single Caspase-Glo® 3/7 Reagent in an “add-mix-measure” format results in cell lysis, followed by caspase cleavage of the substrate and generation of a “glow-type” luminescent signal.
This assay uses the MOLP-8 human multiple myeloma cell line, which is sensitive to MCL-1 inhibition.
Cell cultures were maintained between 0.2 and 2.0×10^6 cells/mL. The cells were harvested by collection in 50 mL conical tubes. The cells were then pelleted at 500 g for 5 mins before removing supernatant and resuspension in fresh pre-warmed culture medium. The cells were counted and diluted as needed.
The assay reagent was prepared by transferring the buffer solution to the substrate vial and mixing. The solution may be stored for up to 1 week at 4° C. with negligible loss of signal.
Compounds were delivered in assay-ready plates (Proxiplate) and stored at −20° C. Assays always include 1 reference compound plate containing reference compounds. The plates were spotted with 40 nL of compounds (0.5% DMSO final in cells; serial dilution; […] highest conc. 1/3 dilution, 10 doses, duplicates). The compounds were used at room temperature and 4 μL of pre-warmed media was added to all wells except column 2 and 23. The negative control was prepared by adding 1% DMSO in media. The positive control was prepared by adding the appropriate positive control compound in final concentration of […] in media. The plate was prepared by adding 4 μL negative control to column 23, 4 μL positive control to column 2 and 4 μL cell suspension to all wells in the plate. The plate with cells was then incubated at 37° C. for 2 hours. The assay signal reagent is the Caspase-Glo solution described above, and 8 μL was added to all wells. The plates were then sealed and measured after 30 minutes.
The activity of a test compound was calculated as percent change in apoptosis induction as follows:
% Effect (AC50)=100−(sample-LC)/(HC-LC)*100
% Control=(sample/HC)*100
% Control min=(sample-LC)/(HC-LC)*100

Myeloid Cell Leukemia 1(Mcl-1), sequence (Q07820 whole entry): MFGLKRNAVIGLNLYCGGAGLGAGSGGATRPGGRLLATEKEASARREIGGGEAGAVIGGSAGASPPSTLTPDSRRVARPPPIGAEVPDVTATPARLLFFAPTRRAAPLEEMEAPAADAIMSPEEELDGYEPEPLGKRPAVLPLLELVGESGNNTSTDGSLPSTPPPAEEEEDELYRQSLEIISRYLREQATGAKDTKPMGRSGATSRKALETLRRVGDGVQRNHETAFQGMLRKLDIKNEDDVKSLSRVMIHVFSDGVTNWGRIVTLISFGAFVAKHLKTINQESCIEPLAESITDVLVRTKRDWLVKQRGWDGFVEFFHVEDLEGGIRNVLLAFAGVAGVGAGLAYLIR

Row | SMILES | Ki [1] | AC50 [2]
1 | C[C@@H]1[C@@H](C)C/C=C(\F)[C@H](C(=O)N2CCOC3(CCC3)C2)N2CCC[C@H]2CN2C[C@@]3(CCCc4cc(Cl)ccc43)COc3ccc(cc32)C(=O)NS1(=O)=O [Compound 26] | 0.115 nM | 153 nM
2 | C[C@@H]1[C@@H](C)C/C=C(\F)[C@H](C(=O)N(C)CCO)N2CCC[C@H]2CN2C[C@@]3(CCCc4cc(Cl)ccc43)COc3ccc(cc32)C(=O)NS1(=O)=O [Compound 27] | 0.054 nM | 396 nM
3 | C[C@@H]1[C@@H](C)C/C=C(\F)[C@H](C(=O)N(C)c2ccccc2)N2CCC[C@H]2CN2C[C@@]3(CCCc4cc(Cl)ccc43)COc3ccc(cc32)C(=O)NS1(=O)=O [Compound 28] | 0.465 nM | 302 nM
4 | C[C@@H]1[C@@H](C)C/C=C(\F)[C@H](C(=O)N2CCCC3(C2)CC3(F)F)N2CCC[C@H]2CN2C[C@@]3(CCCc4cc(Cl)ccc43)COc3ccc(cc32)C(=O)NS1(=O)=O (stereo partly shown) [Compound 29] | 0.494 nM | 408 nM
5 | C[C@@H]1[C@@H](C)C/C=C(\F)[C@H](C(=O)N(C)CC(F)(F)F)N2CCC[C@H]2CN2C[C@@]3(CCCc4cc(Cl)ccc43)COc3ccc(cc32)C(=O)NS1(=O)=O [Compound 30] | 0.379 nM | 351 nM
6 | CC(C)N(C)C(=O)[C@H]1/C(F)=C/C[C@H](C)[C@@H](C)S(=O)(=O)NC(=O)c2ccc3c(c2)N(C[C@@H]2CCCN21)C[C@@]1(CCCc2cc(Cl)ccc21)CO3 [Compound 31] | 0.105 nM | 238 nM
7 | C[C@@H]1[C@@H](C)C/C=C(\F)[C@H](C(=O)N2CCC3(CCCCC3)C2)N2CCC[C@H]2CN2C[C@@]3(CCCc4cc(Cl)ccc43)COc3ccc(cc32)C(=O)NS1(=O)=O [Compound 32] | 0.603 nM | 478 nM
8 | C[C@@H]1[C@@H](C)C/C=C(\F)[C@H](C(=O)N(C)Cc2ccnn2C)N2CCC[C@H]2CN2C[C@@]3(CCCc4cc(Cl)ccc43)COc3ccc(cc32)C(=O)NS1(=O)=O [Compound 34] | 0.077 nM | 76.9 nM
9 | C[C@@H]1[C@@H](C)C/C=C(\F)[C@H](C(=O)N(C)CCOC2CCOCC2)N2CCC[C@H]2CN2C[C@@]3(CCCc4cc(Cl)ccc43)COc3ccc(cc32)C(=O)NS1(=O)=O [Compound 35] | 0.066 nM | 90.1 nM
10 | C[C@@H]1[C@@H](C)C/C=C(\F)[C@H](C(=O)N2CC(C(F)(F)F)C2)N2CCC[C@H]2CN2C[C@@]3(CCCc4cc(Cl)ccc43)COc3ccc(cc32)C(=O)NS1(=O)=O [Compound 36] | 0.325 nM | 399 nM
11 | COCCCN(CCCOC)C(=O)[C@H]1/C(F)=C/C[C@H](C)[C@@H](C)S(=O)(=O)NC(=O)c2ccc3c(c2)N(C[C@@H]2CCCN21)C[C@@]1(CCCc2cc(Cl)ccc21)CO3 [Compound 37] | 0.061 nM | 49.5 nM
12 | COCCN1CCN(C(=O)[C@H]2/C(F)=C/C[C@H](C)[C@@H](C)S(=O)(=O)NC(=O)c3ccc4c(c3)N(C[C@@H]3CCCN32)C[C@@]2(CCCc3cc(Cl)ccc32)CO4)CC1 [Compound 38] | 0.051 nM | 187 nM
13 | COCCN(CCOC)C(=O)[C@H]1/C(F)=C/C[C@H](C)[C@@H](C)S(=O)(=O)NC(=O)c2ccc3c(c2)N(C[C@@H]2CCCN21)C[C@@]1(CCCc2cc(Cl)ccc21)CO3 [Compound 39] | 0.081 nM | 19.7 nM
14 | C[C@@H]1[C@@H](C)C/C=C(\F)[C@H](C(=O)N(C)Cc2ccn(C)n2)N2CCC[C@H]2CN2C[C@@]3(CCCc4cc(Cl)ccc43)COc3ccc(cc32)C(=O)NS1(=O)=O [Compound 40] | 0.623 nM | 138 nM
15 | C[C@@H]1[C@@H](C)C/C=C(\F)[C@H](C(=O)N(C)CCOc2cncnc2)N2CCC[C@H]2CN2C[C@@]3(CCCc4cc(Cl)ccc43)COc3ccc(cc32)C(=O)NS1(=O)=O [Compound 41] | 0.034 nM | 99.1 nM
16 | COC1(C(F)(F)F)CN(C(=O)[C@H]2/C(F)=C/C[C@H](C)[C@@H](C)S(=O)(=O)NC(=O)c3ccc4c(c3)N(C[C@@H]3CCCN32)C[C@@]2(CCCc3cc(Cl)ccc32)CO4)C1 [Compound 42] | 0.374 nM | 463 nM
17 | C[C@@H]1[C@@H](C)C/C=C(\F)[C@H](C(=O)N2CCC(F)(F)CC2)N2CCC[C@H]2CN2C[C@@]3(CCCc4cc(Cl)ccc43)COc3ccc(cc32)C(=O)NS1(=O)=O [Compound 43] | 0.438 nM | 399 nM
18 | CC1CN(CCN(C)C(=O)[C@H]2/C(F)=C/C[C@H](C)[C@@H](C)S(=O)(=O)NC(=O)c3ccc4c(c3)N(C[C@@H]3CCCN32)C[C@@]2(CCCc3cc(Cl)ccc32)CO4)CC(C)O1 (stereo partly shown) [Compound 44] | 0.104 nM | 87.3 nM
19 | C[C@@H]1[C@@H](C)C/C=C(\F)[C@H](C(=O)N2CCC(CC#N)CC2)N2CCC[C@H]2CN2C[C@@]3(CCCc4cc(Cl)ccc43)COc3ccc(cc32)C(=O)NS1(=O)=O [Compound 46] | 0.091 nM | 329 nM
20 | C[C@@H]1[C@@H](C)C/C=C(\F)[C@H](C(=O)N2CC[C@@H](C#N)C2)N2CCC[C@H]2CN2C[C@@]3(CCCc4cc(Cl)ccc43)COc3ccc(cc32)C(=O)NS1(=O)=O [Compound 47] | 0.065 nM | 241 nM
21 | C[C@@H]1[C@@H](C)C/C=C(\F)[C@H](C(=O)N(C)CCOc2cncc(F)c2)N2CCC[C@H]2CN2C[C@@]3(CCCc4cc(Cl)ccc43)COc3ccc(cc32)C(=O)NS1(=O)=O [Compound 48] | 0.155 nM | 112 nM
22 | CO[C@@H]1CCN(C(=O)[C@H]2/C(F)=C/C[C@H](C)[C@@H](C)S(=O)(=O)NC(=O)c3ccc4c(c3)N(C[C@@H]3CCCN32)C[C@@]2(CCCc3cc(Cl)ccc32)CO4)C1 [Compound 52] | 0.036 nM | 90.5 nM
23 | C[C@@H]1[C@@H](C)C/C=C(\F)[C@H](C(=O)N2C[C@@H]3OCCO[C@@H]3C2)N2CCC[C@H]2CN2C[C@@]3(CCCc4cc(Cl)ccc43)COc3ccc(cc32)C(=O)NS1(=O)=O [Compound 53] | 0.069 nM | 169 nM
